Results taken from patent US11661439B2, “Peptide hydrogels and use thereof” (The United States of America, as represented by the …, priority 2017, dated 2023).

Tests used:
[1] = test system: human dermal fibroblasts (HDFs); test: 2D cell culture of HDFs on gel surfaces; type: cell-based; details: Essential 8 Medium or serum-free DMEM
Procedure: 2D cell culture on peptide gels. Peptides were initially dissolved in water at 1 wt % on ice and mixed with an equal volume of ice-cold 2×HEPES buffer (50 mM HEPES, 300 mM NaCl, pH 7.4). The peptide solution (50 μL per well) was transferred to a non-tissue culture treated 96-well plates and incubated at 37° C. to initiate gelation. After 1 hour, HDFs (2×10^4 cells per 200 μL, per well) in serum-free DMEM, 10% FBS supplemented DMEM, or Essential 8 Medium (Thermo Fisher Scientific) were seeded on the peptide gels and cultured for 4 days. Bovine type I collagen gels (0.3 wt %, 50 μL per well) were prepared in 96-well plates following manufacturer's instructions.
Cell viability assay. Cell viability was evaluated by live and dead cell staining after 2D and 3D cell culture. Serum-free DMEM containing 1 μM calcein-AM and 2 μM ethidium homodimer-1 was added to the cells (200 μL per well for 2D culture and 500 μL each to the top and bottom of the gels for 3D culture). After incubation at 37° C. for 30 min, live and dead cells were visualized using EVOS FL Auto Cell Imaging System (Thermo Fisher Scientific). For the pseudo-colored composite image of varying heights of encapsulated cells, images of the live-stained cells were captured every 5 μm of height. Then Z-stack images for each 100 μm were flattened using the EVOS software, and the flattened images were pseudo-colored and merged using ImageJ.
Cell proliferation assay. A cell proliferation assay was performed using Cell Counting Kit-8 (CCK-8, Dojindo Molecular Technologies) for 2D and 3D cell culture. Serum-free DMEM containing 10% CCK-8 was added to the gels (200 μL per well for 2D culture; 500 μL to the top of the gels for 3D culture) and incubated for 2 hours at 37° C. Subsequently, media were transferred to 96-well plates (150 μL per well) and their absorbance measured at 450 nm relative to control viabilities from day 0 for 2D cell culture and day 1 for 3D cell culture. Experiments were performed in triplicate.
Cytoskeleton staining. For 2D cell culture, the peptide and collagen gels (70 μL) were prepared as described above on the glass bottom of 35 mm dishes (7 mm glass diameter, MatTek). HDFs in Essential 8 Medium (1.5×10^5 cells per 3 mL) were added to the dishes and incubated at 37° C. for 24 hours. Cells were fixed and permeabilized with 4% paraformaldehyde and 0.1% Triton X-100 in PBS for 15 min, and then blocked with 1% BSA in PBS. Cells were incubated with anti-vinculin antibody (hVIN-1, Sigma) for 1 hour at room temperature. Then, a goat anti-mouse IgG (H+L) cross-adsorbed secondary antibody, Rhodamine Red-X (2 μg mL^−1, Thermo Fisher Scientific), Alexa Fluor 488 phalloidin (5 units mL^−1, Thermo Fisher Scientific), and Hoechst 33342 (5 μg mL^−1, Invitrogen) in PBS were added to the dishes and incubated for 1 hour at room temperature. After washing, cells were visualized using an EVOS FL Auto Cell Imaging System.

[2] = TEM analysis of peptide fibrils; type: physicochemical; details: 30 independent measurements
Procedure: FIG. 4. Fibril visualization of β-hairpin peptide hydrogels. Transmission Electron Microscopy (TEM) images of peptide fibrils and frequency distributions determined from 30 independent measurements (scale bar=100 nm).
Transmission electron microscopy (TEM) analysis. The hydrogel nanostructure of the peptide gels was observed using a Hitachi H-7650 transmission electron microscope at a voltage of 80 kV. A 1 wt % solution of peptide and an equal volume of buffer (50 mM HEPES containing 300 mM NaCl, pH 7.4) was mixed and incubated overnight at 37° C. to allow for gelation. The next day, samples for TEM analysis were prepared by suspending 5 μL of the resulting peptide gel in 195 μL of water to yield a 40-fold dilution. Small amounts (5 μL) of each diluted gel solution were applied to separate carbon coated copper grids. After 1 min, the grid was washed with water. Then, a 1 w/v % uranyl acetate aqueous solution was placed on each grid for negative staining. Excess staining solution was blotted away, left to air dry, and the grids were imaged immediately.

[3] = Oscillatory rheology of protein-loaded AcVES3 hydrogels; type: physicochemical; details: at 60 min; 0.5 wt % AcVES3 hydrogel loaded with protein
Procedure: FIGS. 12A and 12B. […] (12A) Dynamic time sweep experiments. Hydrogels were set for 60 min, followed by 30 s of high strain, then a recovery period of 60 min. (12B) Storage moduli after 60 min. Bars outlined in black represent post shear storage moduli after 60 min recovery.
Oscillatory Rheology. Rheological assessment was conducted on a […] AR-G2 rheometer using a 25 mm stainless steel parallel geometry. A representative set of proteins was used to determine whether the fusion domain affected the material properties of the AcVES3 hydrogels. […] This solution was immediately applied to the center of the plate and the upper geometry was lowered to a gap height of […]. The temperature was increased from 5° C. to 37° C. over 100 s at a constant angular frequency of 6 rad s^−1 and 0.2% strain. The storage and loss moduli were monitored for 60 min at a constant angular frequency of 6 rad s^−1 and 0.2% strain at 37° C. […] The moduli were monitored for 60 min (6 rad s^−1, 0.2% strain, 37° C.), followed by the application of 1000% strain for 30 s to shear the gel, after which the strain was reduced to 0.2% and the gel was allowed to recover for 60 min (6 rad s^−1, 0.2% strain).

Substance	cell adhesion of HDFs on gel surface ([1]; day 1)	cell adhesion of HDFs on gel surface ([1]; day 4)	average fibril width [2]	storage moduli [3]
Ac-VEVSVSVEV^DPPTEVSVEVEV-NH2 [AcVES3]	adhered	most of the cells detached	3.1±0.4 nm	–
EGFP: fluorescent protein EGFP, SEQ ID NO: 19, model heterologous protein with net negative charge	–	–	–	~1000 Pa
